pEC50, pIC50: −log10 of the molar value. The source made the active and inactive calls. The calls are words filed in the database; no cut-off is given here.

Test [1] is described as follows: Cytotoxicity against human KB3 cells after 72 hrs by MTS assay. Type of test: functional. The note with it: KB3, 72 h. Background: Tetrazolium dyes change colour on reduction, which living cells bring about.
Test [2] can be described thus: Antiproliferative activity against human U87 cells expressing GFP after 3 days by flash-cytometry. It is filed as functional, U-87MG ATCC. The settings on record: U-87 MG, 72 h, read-out: ED50 (the source's name).
Test [3] deals with MCF7. Description: Cytotoxicity against human MCF7 cells by MTT assay. It is filed as functional, cell-based.
The subject of test [4] is T98G. Description: Cytotoxicity against human T98G cells by MTT assay. Type of test: functional, cell-based.
The test system of test [5] is PC-3. Kind of test: Cytotoxicity against human PC3 cells by MTT assay. It is filed as functional, cell-based.
Test [6] is described as follows: Cytotoxicity against human Hs683 cells by MTT assay. The settings on record: Hs 683. Type of test: functional, cell-based.
The subject of test [7] is BXPC-3. Kind of test: Cytotoxicity against human BxPC3 cells by MTT assay. It is filed as functional, cell-based.
For test [8], the system named is A549. Kind of test: Cytotoxicity against human A549 cells by MTT assay. Type of test: functional, cell-based.
Test [9] concerns LoVo. Kind of test: Cytotoxicity against human LoVo cells by MTT assay. It is filed as functional, cell-based.
Test [10] in a line: Cytotoxicity against human U373 cells by MTT assay. The note with it: U373 MG. It is filed as functional, cell-based, U-373MG ATCC.
Test [11] is described as follows: Cytotoxicity against human KB3-1 cells assessed as reduction of glutathione level after 72 hrs by MTT assay. Type of test: functional. The settings on record: KB 3-1, 72 h.
For test [12], the system named is Nucleic Acid. Kind of test: Binding affinity to calf thymus DNA assessed as DNA alkylation at 2 to 100 uM after 24 hrs. The note with it: Bos taurus. Type of test: nucleic-acid assay.
In test [13] the test system is Nucleic Acid. Kind of test: Binding affinity to calf thymus DNA at 2 to 100 uM by standard spectrometry. Type of test: nucleic-acid assay. The settings on record: Bos taurus.
Test [14] concerns Nucleic Acid. Description: Binding affinity to calf thymus DNA at 2 to 100 uM by EMSA. The settings on record: Bos taurus. Type of test: nucleic-acid assay. A general note: A gel shift assay detects complexes by their altered migration in electrophoresis.
Test [15] can be described thus: Cytotoxicity against human KB3-1 cells assessed as reduction of glutathione level after 72 hrs by MTT assay pretreated with buthionin sulfoximine. The settings on record: KB 3-1. It is filed as functional.
For test [16], the system named is Nucleic Acid. Kind of test: Binding affinity to calf thymus DNA assessed as DNA cleavage at 2 to 100 uM by electrophoresis. The settings on record: Bos taurus. It is filed as nucleic-acid assay.

For the compound `Oc1ccc(CN(Cc2ccccc2)Cc2ccccc2)c2cccnc12`, it took 1000 nM to reach half-maximal cytotoxicity in [1] (CC50). Also, the pEC50 in [2] is 5.30.

As to `Cc1ccc(CNCc2ccc(O)c3ncccc23)cc1`, the pEC50 in test [2] was < 5.00.

Take `Oc1ccc(CN(Cc2cccc(C(F)(F)F)c2)Cc2ccc(O)c3ncccc23)c2cccnc12`: the CC50 (as a rule, the concentration that lowers cell viability or growth by half) in test [1] stood at 2200 nM. The pIC50 (in general, the negative decadic logarithm of the IC50, by convention in mol/L) in test [3] was 7.52; in test [4], 7.24; in test [5] it was 7.43; in test [6], 7.44; in test [7], 6.78; in test [8] it was 7.42. Besides, the pIC50 is 7.03 in test [9] and 7.19 in test [10]. Moreover, the pEC50 in [2] was 5.70.

`CC(C)(C)OC(=O)N(Cc1cc(C(F)(F)F)cc(C(F)(F)F)c1)Cc1ccc(O)c2ncccc12` yielded a CC50 in test [1] of 1000 nM.

For `Oc1ccc(CN(Cc2cccs2)Cc2ccc(O)c3ncccc23)c2cccnc12`, the CC50 in [1] worked out at 2 nM. The pIC50 is 7.46 in test [3]; 7.06 in test [4]; 7.36 in test [5]; 7.46 in [6]; 7.05 in test [7]; 7.57 in test [8]. Besides, the figures for the negative logarithm of the IC50 (pIC50) in test [9] and in test [10] were 7.40 and 7.07, respectively. Besides, the pEC50 in test [2] is > 6.70.

In the case of `Oc1ccc(CN(CCc2ccccn2)Cc2ccc(O)c3ncccc23)c2cccnc12`, the 50% cytotoxic concentration (CC50) in test [1] was > 10000 nM.

Take `Oc1ccc(CN(CCN2CCCC2)Cc2ccc(O)c3ncccc23)c2cccnc12`: the half-maximal cytotoxic concentration (CC50) in [1] is 1000 nM. Further, the pEC50 in test [2] was 6.70.

As to `Oc1ccc(CN(Cc2ccc(C(F)(F)F)cc2)Cc2ccc(O)c3ncccc23)c2cccnc12`, the half-maximal cytotoxic concentration (CC50) in [11] was determined as 33 nM; in test [1] it was 1 nM; in [15] it was 70 nM. The outcome in test [12], in test [13], in test [14] and in test [16] was inactive. The negative logarithm of the IC50 (pIC50) in [3] was 7.47; in test [4] it was 7.00; in [5] it was 7.18; in test [6], 8.00; in test [7], 5.37; in test [8], 8.10. The negative-log IC50 (pIC50) is 8.00 in test [9] and 7.36 in [10]. Also, the pEC50 in test [2] was > 6.70.

As to `Oc1ccc(CNCc2ccccc2)c2cccnc12`, in [1], the cytotoxic concentration (CC50) is > 1000 nM.

On to `Oc1ccc(CN(Cc2ccc(OC(F)(F)F)cc2)Cc2ccc(O)c3ncccc23)c2cccnc12`, for which, in test [1], the CC50 was 100 nM.

`Cc1ccc(C(=O)NCc2ccc(O)c3ncccc23)cc1` came in with a 50% cytotoxic concentration (CC50) in test [1] of 1000 nM. Besides, the pEC50 in test [2] was 5.00.

`COc1ccc(CN(Cc2ccc(C(F)(F)F)cc2)Cc2ccc(O)c3ncccc23)c2cccnc12`: the CC50 in test [1] was > 10000 nM.

In test [1], `O=C(O)C1CCC(CN(Cc2ccc(O)c3ncccc23)Cc2ccc(O)c3ncccc23)CC1` (configuration not stated) registered a CC50 of 1100 nM. Also, the negative logarithm of the IC50 (pIC50) is 5.02 in test [3]; 5.01 in [4]; 5.00 in [5]; 5.54 in test [6]; 5.36 in [7]; 6.18 in test [8]. For the same compound, the negative logarithm of the IC50 (pIC50) in test [9] is 6.37; in test [10], 5.43.

In test [1], `Oc1ccc(CNCc2cccc(C(F)(F)F)c2)c2cccnc12` came in with a cytotoxic concentration (CC50) of 200 nM. Also, the pEC50 in [2] is 6.74.

`Oc1ccc(CN(Cc2cc(C(F)(F)F)cc(C(F)(F)F)c2)Cc2ccc(O)c3ncccc23)c2cccnc12` displayed a cytotoxic concentration (CC50) in test [1] of 1000 nM. The pIC50 is 7.42 in test [3]; 7.14 in [4]; 7.15 in test [5]; 6.74 in test [6]; 7.10 in test [7]; 8.05 in test [8]. In addition, the pIC50 in test [9] is 8.00; in test [10], 7.02. The pEC50 in test [2] is > 6.70.

Regarding `Oc1ccc(CN(Cc2ccc(O)c3ncccc23)Cc2ccc(O)c3ncccc23)c2cccnc12`, the half-maximal cytotoxic concentration (CC50) in test [1] was > 10000 nM. Besides, the pEC50 in test [2] was < 5.00.

`CC(C)(C)OC(=O)N(Cc1ccc(C(F)(F)F)cc1)Cc1ccc(O)c2ncccc12` gave a CC50 in [1] of 10000 nM. In addition, in test [2], the pEC50 is 5.70.

Consider `Oc1ccc(CN(Cc2ccc(C(F)(F)F)cc2)Cc2cccc3ncccc23)c2cccnc12`, for which the midpoint of cytotoxicity in [1], the CC50, lay at 10000 nM. In addition, the pEC50 in test [2] is < 5.00.

In the case of `Oc1ccc(CN(Cc2cccc(I)c2)Cc2ccc(O)c3ncccc23)c2cccnc12`, it took 1000 nM to reach half-maximal cytotoxicity in [1] (CC50). The negative-log IC50 (pIC50) in test [3] was 6.43; in test [4], 6.35; in test [5], 6.40; in test [6], 6.32; in test [7], 5.59; in test [8] it was 6.46. In addition, the pIC50 in [9] is 6.41; in test [10] it was 5.25. For the same compound, the pEC50 in test [2] is 5.70.

Turning to `Cn1cccc1CN(Cc1ccc(O)c2ncccc12)Cc1ccc(O)c2ncccc12`, the pEC50 in [2] was 5.70.

For the compound `Oc1ccc(CN(Cc2ccccc2)Cc2ccc(O)c3ncccc23)c2cccnc12`, in [1], the CC50 was found to be 20 nM. For the same compound, the pIC50 in test [3] was 7.01; in [4], 6.60; in test [5], 6.59; in test [6], 7.12; in test [7] it was 5.13; in test [8], 6.26. The results for the negative logarithm of the IC50 (pIC50) in test [9] and in [10] were 7.04 and 6.45, respectively. The pEC50 in test [2] was > 6.30.

Consider `Oc1ccc(CN(Cc2ccc(O)c3ncccc23)CC2CCCO2)c2cccnc12` (configuration not stated), for which the CC50 in test [1] was found to be 10000 nM. Moreover, the pEC50 in test [2] is 5.30.

Turning to `Oc1ccc(CNCc2ccc(C(F)(F)F)cc2)c2cccnc12`, in test [1], the cytotoxic concentration (CC50) was 10000 nM. The pEC50 in test [2] is < 5.00.

In [1], `Oc1ccc(CN(Cc2ccccc2C(F)(F)F)Cc2ccc(O)c3ncccc23)c2cccnc12` gave a cytotoxic concentration (CC50) of 100 nM. The pIC50 in test [3] is 7.06; in [4] it was 6.68; in test [5] it was 6.75; in test [6], 7.19; in test [7] it was 6.56; in test [8], 7.34. Moreover, the results for the negative-log IC50 (pIC50) in test [9] and in test [10] were 7.03 and 7.11, respectively. Moreover, the pEC50 in test [2] is > 6.70.

The compound `CC(C)(C)OC(=O)N(Cc1cccc(C(F)(F)F)c1)Cc1ccc(O)c2ncccc12` displayed a CC50 in test [1] of 1000 nM. In addition, in test [2], the pEC50 is < 5.00.

(Values after ChEMBL document CHEMBL1153753, “Structure-activity relationships and mechanism of action of antitumor bis 8-hydroxyquinoline substituted benzylamines” (Eur J Med Chem, 2010).)
